According to US12648921B2, “Capric acid and myristic acid compositions for treating conditions” (The Cleveland Clinic Foundation, priority 2016, dated 2026):

Tested on: house dust mite (D. Pteronyssinus) extract (HDME) sensitized and challenged mice
Experiment: Airway hyper-reactivity and lung mechanics in house dust mite extract sensitized mice fed purified MCF diets
Format: in vivo
Conditions: mice fed purified MCF diet, 100 mg/day (4 g/kg body weight); for overall airway constriction (Rrs) induced by increasing dose of methacholine: FIG. 1, from six weeks before HDME sensitization; for ability of the lungs to stretch (Crs, lung compliance) in response to increasing dose of methacholine: FIG. 2; for stiffness of the lungs (Ers) in response to increasing dose of methacholine: FIG. 3; for amount of forcefully exhaled air (FEV) in response to increasing dose of methacholine: FIG. 4
Experimental: Mice were fed with standard, coconut oil or MCF supplemented diets starting six weeks before allergen sensitization. Isofluorane anesthetized mice received 100 ug house dust mite (D. Pteronyssinus) extract (HDME) (Greer Labs, NC) in […] by nasal aspiration. Five days later mice were challenged daily with 10 ug HDME for 5 days. Three days, after the last HDME exposure, airway hyper-reactivity is measured and lungs collected for analysis. The diets were 15 kcal % fat at a dose of 21 g coconut oil or purified MCF per kg diet. Based on the daily food intake of 4.75 g/day/25 g mouse, each mouse consumes 100 mg of coconut oil or MCF per day. The results of this examples are shown in FIGS. 1-4, which show the results with the mice treated with the various fatty acids, which are present mainly as triglycerides in coconut oil.

Structure (SMILES)	overall airway constriction (Rrs) induced by increasing dose of methacholine	ability of the lungs to stretch (Crs, lung compliance) in response to increasing dose of methacholine	stiffness of the lungs (Ers) in response to increasing dose of methacholine	amount of forcefully exhaled air (FEV) in response to increasing dose of methacholine
CCCCCCCCCC(=O)O [C10, capric acid]	inhibited	improved	decreased	increased
CCCCCCCCCCCCCC(=O)O [C14, myristic acid]	inhibited	improved	decreased	increased
